Data on 22 compounds can be found in ChEMBL document CHEMBL5050844 (2019).

Experiment [1] can be described thus: Induction of anti-CD3 antibodies-stimulated human T cell activation at 1 uM assessed fold increase in IL-2 secretion measured by ELISA assay. Note: reference of the scale not given here. It is filed as functional, T cell line. (ELISA stands for enzyme-linked immunosorbent assay.)
Experiment [2] in a line: Induction of anti-CD3 antibodies-stimulated human T cell activation at 1 uM assessed fold increase in CD25 expression measured by ELISA assay. Note: reference of the scale not given here. The class given is functional, T cell line.
Experiment [3] in a line: Induction of anti-CD3/CD28 antibodies-stimulated human T cell activation at 0.3 uM assessed fold increase in IL-2 secretion measured by ELISA assay. It is filed as functional, T cell line.
A short description of experiment [4]: Induction of anti-CD3/CD28 antibodies-stimulated human T cell activation at 1 uM assessed fold increase in CD25 expression measured by ELISA assay. It is filed as functional, T cell line.
Experiment [5] has as its target E3 ubiquitin-protein ligase CBL-B (Homo sapiens, UniProt Q13191). As to the kind of experiment: Inhibition of N-terminal Avi-tagged human CBL-B (36 to 427 residues) incubated with 60 nM Src kinase for 1.5 hrs followed by incubation with fluorescently labeled UbcH5B-Ub for 1 hr and measured by TR-FRET assay. It is filed as single protein.
Experiment [6] in a line: Induction of anti-CD3/CD28 antibodies-stimulated human T cell activation at 0.3 uM assessed fold increase in CD25 expression measured by ELISA assay. The class given is functional, T cell line.
The nature of experiment [7]: Induction of anti-CD3/CD28 antibodies-stimulated human T cell activation at 1 uM assessed fold increase in IL-2 secretion measured by ELISA assay. The class given is functional, T cell line.

A word on the IC50: it is the midpoint of a concentration-inhibition curve. Lower therefore signals inhibition by little substance.

E3 ubiquitin-protein ligase CBL-B, sequence (Q13191 whole entry, the tested form may be a part): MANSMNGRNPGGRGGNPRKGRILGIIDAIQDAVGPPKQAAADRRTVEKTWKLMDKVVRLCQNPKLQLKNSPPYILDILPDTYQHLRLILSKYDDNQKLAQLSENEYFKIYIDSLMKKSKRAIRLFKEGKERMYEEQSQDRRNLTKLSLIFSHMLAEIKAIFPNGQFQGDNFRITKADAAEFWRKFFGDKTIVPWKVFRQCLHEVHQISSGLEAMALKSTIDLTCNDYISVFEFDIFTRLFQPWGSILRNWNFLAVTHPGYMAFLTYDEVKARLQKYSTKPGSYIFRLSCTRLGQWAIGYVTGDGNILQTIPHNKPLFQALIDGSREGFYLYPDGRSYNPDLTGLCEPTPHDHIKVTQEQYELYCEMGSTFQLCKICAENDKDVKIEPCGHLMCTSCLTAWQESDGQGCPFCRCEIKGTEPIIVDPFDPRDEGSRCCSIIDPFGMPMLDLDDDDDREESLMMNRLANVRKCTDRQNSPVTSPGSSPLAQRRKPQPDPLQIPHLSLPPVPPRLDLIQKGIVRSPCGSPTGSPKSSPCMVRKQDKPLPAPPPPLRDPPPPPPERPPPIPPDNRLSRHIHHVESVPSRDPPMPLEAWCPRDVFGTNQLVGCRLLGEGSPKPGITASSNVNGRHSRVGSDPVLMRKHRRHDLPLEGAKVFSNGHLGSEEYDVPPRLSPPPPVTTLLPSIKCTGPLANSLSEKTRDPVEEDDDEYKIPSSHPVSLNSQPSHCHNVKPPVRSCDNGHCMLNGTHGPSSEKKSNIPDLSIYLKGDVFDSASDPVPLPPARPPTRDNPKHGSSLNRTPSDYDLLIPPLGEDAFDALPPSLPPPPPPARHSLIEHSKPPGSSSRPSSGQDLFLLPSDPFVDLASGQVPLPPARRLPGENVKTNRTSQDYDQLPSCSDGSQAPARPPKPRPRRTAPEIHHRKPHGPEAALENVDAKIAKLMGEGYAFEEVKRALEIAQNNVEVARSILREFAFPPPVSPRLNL

Take `CCOc1cc(N2Cc3c(cc(CN4CC[C@H](F)C4)cc3C(F)(F)F)C2=O)cc(C2(Cc3nncn3C)COC2)c1`: the “fold change (FC)” value in experiment [1] is on record as “>=0.201”; in experiment [2], “>=1.001”; in experiment [3], 5; in experiment [4], 1.31; in experiment [6] it was 1.31; in experiment [7], “>=7.5”. Also, the IC50 in experiment [5] was less than 100 nM.
As for `Cc1cc2c(c(C3CC3)n1)CN(c1cccc(C3(C(F)(F)c4nncn4C)COC3)c1)C2=O`, the “fold change (FC)” value in experiment [1] is 0.051; in experiment [2], 0.601; in experiment [3] it was 1.01; in experiment [4], 1.01; in experiment [6], 1.01; in experiment [7], 1.01. Also, the IC50 in experiment [5] was less than 100 nM.
As to `C[C@H]1CN(C)CCN1c1cc2c(c(C(F)(F)F)c1)CN(c1cccc(C3(Cc4nncn4C)COC3)c1)C2=O`, the “fold change (FC)” value in experiment [1] is recorded as “>=0.201”; in experiment [2], “>=1.001”; in experiment [3], 5; in experiment [4], 1.31; in experiment [6], 1.01; in experiment [7] it was “>=7.5”. This compound showed an IC50 in experiment [5] of less than 100 nM.
As to `Cn1cnnc1CC1(c2cccc(NC(=O)c3[nH]nc4c3OCCC4)c2)COC1`, the “fold change (FC)” value came to 0.051 in experiment [1]; 0.601 in experiment [2]; 1.01 in experiment [3]; 1.01 in experiment [4]; 1.01 in experiment [6]; 1.01 in experiment [7]. Also, the IC50 in experiment [5] is less than 100 nM.
For the compound `COC1CCCN(Cc2cc3c(c(C(F)(F)F)c2)CN(c2cccc(C4(Cc5nncn5C)COC4)c2)C3=O)C1` (centres undefined), the “fold change (FC)” value is listed as “>=0.201” in experiment [1]; “>=1.001” in experiment [2]; “>=7.5” in experiment [3]; 1.51 in experiment [4]; 1.31 in experiment [6]; “>=7.5” in experiment [7]. The compound further gave an IC50 in experiment [5] of less than 100 nM.
Turning to `Cc1cc(C(=O)Nc2cccc(C3([C@@H](F)c4nncn4C)COC3)c2)nc(C2CC2)n1`, the “fold change (FC)” value in experiment [1] is reported as “>=0.201”; in experiment [2] it was “>=1.001”; in experiment [3] it was 2.51; in experiment [4], 1.31; in experiment [6], 1.01; in experiment [7] it was “>=7.5”. In addition, the IC50 in experiment [5] is less than 100 nM.
For the compound `CC(c1cc2c(c(C3CC3)n1)CN(c1cccc(C3(Cc4nncn4C)COC3)c1)C2=O)N1CCC2(CC2)C1` (centres undefined), the “fold change (FC)” value is listed as 0.051 in experiment [1]; 0.801 in experiment [2]; 2.51 in experiment [3]; 1.01 in experiment [4]; 1.01 in experiment [6]; 5 in experiment [7]. Moreover, the IC50 in experiment [5] is less than 100 nM.
Regarding `Cn1cnnc1CC1(c2cccc(NC(=O)c3cc(N4CC(C(F)F)C4)nc(C4CC4)n3)c2)COC1`, the “fold change (FC)” value in experiment [1] is 0.101; in experiment [2], 0.801; in experiment [3] it was 2.51; in experiment [4], 1.01; in experiment [6] it was 1.01; in experiment [7], “>=7.5”. The compound also had a concentration for half-maximal inhibition (IC50) in experiment [5] of less than 100 nM.
On to `C[C@@H](c1cc2c(c(C(F)(F)F)c1)CN(c1cccc(C3([C@H](F)c4nncn4C)COC3)c1)C2=O)N1CCC2(CC2)C1` (single isomer, unassigned), for which the “fold change (FC)” value in experiment [1] was “>=0.201”; in experiment [2], “>=1.001”; in experiment [3], “>=7.5”; in experiment [4] it was “>=1.76”; in experiment [6] it was “>=1.76”; in experiment [7] it was “>=7.5”. In experiment [5], this compound showed an IC50 of less than 100 nM.
In the case of `Cn1cnnc1CC1(c2cccc(NC(=O)c3cc(C4CC4)nc4ccnn34)c2)COC1`, the “fold change (FC)” value in experiment [1] is listed as “<=0.05”; in experiment [2] it was 0.601; in experiment [3], 1.01; in experiment [4] it was 1.01; in experiment [6] it was 1.01; in experiment [7], 2.51. Further, the IC50 in experiment [5] was less than 100 nM.
For the compound `Cn1cnnc1CC1(c2cccc(N3Cc4c(cc(CN5Cc6ccccc6C5)cc4C(F)(F)F)C3=O)c2)COC1`, the “fold change (FC)” value is on record as “>=0.201” in experiment [1]; “>=1.001” in experiment [2]; 5 in experiment [3]; 1.31 in experiment [4]; 1.31 in experiment [6]; “>=7.5” in experiment [7]. Besides, in experiment [5], the IC50 is less than 100 nM.
In the case of `Cn1cnnc1CC1(c2cccc(NC(=O)c3cc(CN4C[C@@H]5[C@H](C4)C5(F)F)cc(C4CC4)n3)c2)COC1`, the “fold change (FC)” value in experiment [1] is “>=0.201”; in experiment [2] it was “>=1.001”; in experiment [3], “>=7.5”; in experiment [4], 1.31; in experiment [6], 1.31; in experiment [7] it was “>=7.5”. In experiment [5], this compound showed an IC50 of less than 100 nM.
With `CC[C@@H](c1cc2c(c(C(F)(F)F)c1)CN(c1cccc(C3(Cc4nncn4C)COC3)c1)C2=O)N1CC[C@H](F)C1`, the “fold change (FC)” value in experiment [1] is “>=0.201”; in experiment [2], “>=1.001”; in experiment [3], “>=7.5”; in experiment [4], 1.51; in experiment [6], 1.51; in experiment [7], “>=7.5”. Also, the concentration for half-maximal inhibition (IC50) in experiment [5] was less than 100 nM.
Regarding `Cn1cnnc1CC1(c2cccc(N3Cc4c(cc(C(N5CCCC5)C(F)(F)F)cc4C(F)(F)F)C3=O)c2)COC1` (centres undefined), the “fold change (FC)” value turned out to be 0.051 in experiment [1]; 0.801 in experiment [2]; 1.01 in experiment [3]; 1.31 in experiment [4]; 1.01 in experiment [6]; 2.51 in experiment [7]. In experiment [5], this compound yielded a half-maximal inhibitory concentration (IC50) of less than 100 nM.
For `Cn1cnnc1CC1(c2cccc(N3Cc4c(cc(N5CCOC5=O)cc4C(F)(F)F)C3=O)c2)COC1`, the “fold change (FC)” value is “<=0.05” in experiment [1]; 0.601 in experiment [2]; 1.01 in experiment [3]; 1.01 in experiment [4]; 1.01 in experiment [6]; 2.51 in experiment [7]. In experiment [5], this compound showed a 50% inhibitory concentration (IC50) of less than 100 nM.
Take `Cn1cnnc1CC1(c2cccc(N3Cc4c(cc(C5=CCOC5)cc4C(F)(F)F)C3=O)c2)COC1`: the “fold change (FC)” value is given as 0.101 in experiment [1]; 0.801 in experiment [2]; 2.51 in experiment [3]; 1.31 in experiment [4]; 1.01 in experiment [6]; 2.51 in experiment [7]. In addition, in experiment [5], the IC50 is less than 100 nM.
On to `Cn1cnnc1CC1(c2cccc(N3Cc4c(cc(CN5CC[C@H](c6ccccc6)C5)cc4C(F)(F)F)C3=O)c2)COC1`, for which the “fold change (FC)” value is listed as “>=0.201” in experiment [1]; “>=1.001” in experiment [2]; 5 in experiment [3]; 1.01 in experiment [4]; 1.01 in experiment [6]; “>=7.5” in experiment [7]. The compound further showed an IC50 in experiment [5] of less than 100 nM.
With `CN1CCN(Cc2cc3c(c(C(F)(F)F)c2)CN(c2cccc(C4(Cc5nncn5C)COC4)c2)C3=O)CC1`, the “fold change (FC)” value in experiment [1] was “>=0.201”; in experiment [2], “>=1.001”; in experiment [3], 2.51; in experiment [4], 1.31; in experiment [6], 1.31; in experiment [7], “>=7.5”. Moreover, the IC50 in experiment [5] was less than 100 nM.
Regarding `Cn1cnnc1CC1(c2cccc(NC(=O)c3cc(CN4CC[C@H](F)C4)nc(C4CC4)n3)c2)COC1`, the “fold change (FC)” value in experiment [1] is on record as “>=0.201”; in experiment [2], “>=1.001”; in experiment [3] it was “>=7.5”; in experiment [4], 1.51; in experiment [6], 1.51; in experiment [7], “>=7.5”. The compound further displayed a half-maximal inhibitory concentration (IC50) in experiment [5] of less than 100 nM.
Regarding `Cn1cnnc1CC1(c2cccc(N3Cc4c(cc(CC5CCCO5)cc4C(F)(F)F)C3=O)c2)COC1` (centres undefined), the “fold change (FC)” value in experiment [1] is on record as 0.101; in experiment [2], 0.801; in experiment [3], 2.51; in experiment [4] it was 1.01; in experiment [6], 1.01; in experiment [7] it was “>=7.5”. This compound also came in with an IC50 in experiment [5] of less than 100 nM.
Turning to `CN1CC2CCC1CN2c1cc2c(c(C(F)(F)F)c1)CN(c1cccc([C@@](C)(F)C(F)(F)c3nncn3C)c1)C2=O` (some centres undefined), the “fold change (FC)” value in experiment [1] is given as 0.101; in experiment [2], “>=1.001”; in experiment [3] it was 1.01; in experiment [4] it was 1.31; in experiment [6] it was 1.31; in experiment [7], 2.51. Also, in experiment [5], the IC50 was less than 100 nM.
Regarding `C[C@@H](c1cc2c(c(C(F)(F)F)c1)CN(c1cccc(C3(Cc4nncn4C)COC3)c1)C2=O)N1CC(C)(F)C1`, the “fold change (FC)” value in experiment [1] is “>=0.201”; in experiment [2], “>=1.001”; in experiment [3] it was 2.51; in experiment [4], 1.51; in experiment [6], 1.31; in experiment [7] it was “>=7.5”. In experiment [5], this compound came in with an IC50 of less than 100 nM.
